Where two headings read alike, the source gives them in different places.
How the values were obtained:
[1] = Absorption and fluorescence photophysical characterization in organic solvents; format: physicochemical
Procedure: UV–Vis spectra were recorded on a Perkin-Elmer Lambda 25 spectrophotometer (Perkin-Elmer, Waltham, MA, USA) using Hellma Analytics quartz cuvettes (1 cm path length; Hellma Analytics, Müllheim, Germany). Spectral data are reported as maximum absorption wavelength (λmax, nm) and molar absorptivity (ε, M^−1·cm^−1). The latter was calculated according to the Lambert–Beer law from calibration plots of absorbance at λmax versus known dye concentrations.
Ultraviolet–visible absorption spectra were obtained at room temperature using a PerkinElmer Lambda 25 spectrophotometer, while fluorescence emission data were collected on a Horiba Jobin Yvon FluoroMax-4 fluorometer. Singlet oxygen and photostability tests and measurements were carried out on a BioRad xMark microplate reader (Bio-Rad, Hercules, CA, USA).
[…] All stock solutions were prepared at 0.67 mM concentration and stored in the dark at 4 °C until further use. For spectroscopic characterization, 1.0 µM stock solutions of the squaraine dyes in dimethyl sulfoxide were serially diluted into a series of solvents (chloroform, dimethyl sulfoxide, methanol, and phosphate buffer) to obtain at least five defined concentrations. The absorption spectra of these dilutions were recorded and used to calculate molar extinction coefficients according to the Beer–Lambert law. Additional working solutions at a 1.0 µM concentration were prepared in dimethyl sulfoxide and buffer, and 1.0% Triton X-100 was added where required to investigate dye aggregation.
The emission areas were integrated, and relative quantum yields were calculated following established methodologies, considering both absorbance at the excitation wavelength and the refractive index of the solvent. The calculation was performed using Equation (2), where “dye” and “ref” denote the squaraine dyes and the reference compound, respectively; I corresponds to the integrated emission intensity, A to the absorbance value at the excitation wavelength, and η to the refractive index of the solvent:(2) ΦF(dye)= ΦF(Std)Idye/Iref Aref/Adye ηdye2/ηref2

[2] = molecular target: human serum albumin (HSA) (Homo sapiens, UniProt P02768); experiment: Fluorometric squaraine-albumin binding titration; details: for detection limit (DL): HSA detection, DL=3σ/S; for quantification limit (QL): HSA quantification, QL=10σ/S; for fluorescence intensity without protein (F0): dye 2.0 µM in phosphate buffer, no HSA; for fluorescence intensity at the highest protein concentration (F): dye 2.0 µM, highest HSA concentration; for Stokes shift (ΔS) / absorption maximum (λabs) / emission maximum (λem) / fluorescence quantum yield (ΦF): phosphate buffer (pH 7.4), HSA presence; for incubation time for maximum interaction with HSA / incubation time to reach maximum fluorescence with HSA: read at 0 min, 3 h, 24 h; for F/F0: ratio of fluorescence with HSA to fluorescence without HSA; for incubation time to reach maximum fluorescence with HSA: room temperature, protected from light
Procedure: (§1) For fluorometric experiments, the squaraine stock solutions were initially prepared in dimethylformamide and subsequently diluted with phosphate buffer for the protein–dye interaction analysis. Human serum albumin stock solution was then added to these mixtures, while keeping the dye concentration fixed at 2.0 µM and varying the protein concentration from 0 to 3.0 µM (0.0 to 3.0 µM for squaraines 5, 9, and 11, and from 0 to 6.0 µM for squaraine 13). Fluorescence intensities of the resulting solutions were recorded after 0, 3, and 24 h of incubation with the protein. The excitation wavelengths and excitation/emission slit widths used for the measurements were optimized for each dye, as listed in Table 6.
The squaraine-albumin binding constants was calculated using the Benesi–Hildebrand equation (Equation (3)) based on the data obtained from the fluorescence experiments:(3) 1/Fx−F0=1/F∞−F0+1/Kb(F∞−F0)1/[HSA] where F0 is the fluorescence intensity of the squaraine in albumin-free buffer, Fx is the fluorescence observed after protein incubation at a specific concentration, F∞ is the fluorescence at the point of complete interaction, Kb is the binding constant, and [HSA] is the albumin concentration.
Quantification and detection limits (QL and DL, respectively) were determined from a calibration curve of maximum fluorescence intensity against protein concentration. The slope of this curve was then used to calculate the method’s sensitivity using Equations (4) and (5):(4) QL=10σ/S (5) DL=3σ/S where σ refers to the blank standard deviation and S (sensitivity) to the linear regression slope between the fluorescence intensity and albumin concentration.

[3] = Photophysical properties in phosphate buffer in the absence of HSA; format: physicochemical; details: phosphate buffer (pH 7.4)
Procedure: Squaraine dyes were dissolved in dimethyl sulfoxide, whereas zinc phthalocyanine required dimethylformamide as a solvent. All stock solutions were prepared at 0.67 mM concentration and stored in the dark at 4 °C until further use. For spectroscopic characterization, 1.0 µM stock solutions of the squaraine dyes in dimethyl sulfoxide were serially diluted into a series of solvents (chloroform, dimethyl sulfoxide, methanol, and phosphate buffer) to obtain at least five defined concentrations. The absorption spectra of these dilutions were recorded and used to calculate molar extinction coefficients according to the Beer–Lambert law. Additional working solutions at a 1.0 µM concentration were prepared in dimethyl sulfoxide and buffer, and 1.0% Triton X-100 was added where required to investigate dye aggregation.
as §1

[4] = DMSO, relative to zinc phthalocyanine
[5] = slope of fluorescence intensity vs HSA concentration
[6] = phosphate buffer, bound vs free

Chain of human serum albumin (HSA) (P02768 25-609): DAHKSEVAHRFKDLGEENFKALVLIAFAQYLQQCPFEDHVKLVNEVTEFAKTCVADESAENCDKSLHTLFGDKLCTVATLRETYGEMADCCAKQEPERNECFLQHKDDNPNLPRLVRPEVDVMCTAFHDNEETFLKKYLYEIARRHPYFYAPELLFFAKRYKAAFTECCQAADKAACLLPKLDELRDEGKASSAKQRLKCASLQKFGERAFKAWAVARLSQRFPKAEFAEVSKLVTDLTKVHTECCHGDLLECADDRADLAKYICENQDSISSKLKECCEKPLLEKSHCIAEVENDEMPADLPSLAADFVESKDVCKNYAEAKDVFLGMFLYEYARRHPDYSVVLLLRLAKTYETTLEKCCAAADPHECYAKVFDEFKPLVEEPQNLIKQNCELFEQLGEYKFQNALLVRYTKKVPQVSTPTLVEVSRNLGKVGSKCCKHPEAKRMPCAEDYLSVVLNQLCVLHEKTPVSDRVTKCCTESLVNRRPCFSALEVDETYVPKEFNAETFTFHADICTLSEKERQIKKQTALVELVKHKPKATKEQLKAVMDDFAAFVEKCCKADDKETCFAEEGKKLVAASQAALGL

Row | SMILES | Stokes shift (ΔS) ([1]; DMSO) | absorption maximum (λabs) ([1]; DMSO) | emission maximum (λem) ([1]; DMSO) | molar absorption coefficient (ε) ([1]; DMSO) | fluorescence quantum yield (ΦF) [1, 4] | Stokes shift (ΔS) ([1]; chloroform (CFM)) | absorption maximum (λabs) ([1]; chloroform (CFM)) | emission maximum (λem) ([1]; chloroform (CFM)) | fluorescence quantum yield (ΦF) ([1]; chloroform (CFM)) | molar absorption coefficient (ε) ([1]; chloroform (CFM)) | Stokes shift (ΔS) ([1]; methanol (MeOH)) | absorption maximum (λabs) ([1]; methanol (MeOH)) | emission maximum (λem) ([1]; methanol (MeOH)) | fluorescence quantum yield (ΦF) ([1]; methanol (MeOH)) | molar absorption coefficient (ε) ([1]; methanol (MeOH)) | detection limit (DL) [2] | quantification limit (QL) [2] | fluorescence intensity without protein (F0) [2] | fluorescence intensity at the highest protein concentration (F) [2] | Stokes shift (ΔS) [2] | other results
1 | CNC1=C(C=C2N(CCCc3ccccc3)c3ccccc3C2(C)C)C(=O)C1=CC1=[N+](CCCc2ccccc2)c2ccccc2C1(C)C.[I-] [Dye 11, 2-{3-[3,3-Dimethyl-1-(3-phenylpropyl)indolin-2-ylidenemethyl]-2-(methylamino)-4-oxocyclobut-2-en-1-ylidenemethyl}-3,3-dimethyl-1-(3-phenylpropyl)-indol-1-ium Iodide] | 12 nm | 663 nm | 675 nm | 212000 M⁻¹ cm⁻¹ | 0.04 | 13 nm | 657 nm | 670 nm | 0.10 | 202000 M⁻¹ cm⁻¹ | 11 nm | 650 nm | 661 nm | 0.01 | 174000 M⁻¹ cm⁻¹ | 420 nM | 1401 nM | 1.00 a.u. | 360.94 a.u. | 10 nm | absorption maximum (λabs) [2]: 652 nm; emission maximum (λem) [2]: 662 nm; fluorescence quantum yield (ΦF) [2]: 0.04; incubation time for maximum interaction with HSA [2]: immediately upon addition to the protein solution; sensitivity (S) [2, 5]: 119 µM; absorption maximum (λabs) [3]: 655 nm; fluorescence quantum yield (ΦF) [3]: 0.01; molar absorption coefficient (ε) [3]: 71000 M⁻¹ cm⁻¹
2 | CC1(C)C(=CC2=C(N)C(=CC3=[N+](CCCc4ccccc4)c4ccccc4C3(C)C)C2=O)N(CCCc2ccccc2)c2ccccc21.[I-] [Dye 9, 2-{2-Amino-3-[3,3-dimethyl-1-(3-phenylpropyl)indolin-2-ylidenemethyl]-4-oxocyclobut-2-en-1-ylidenemethyl}-3,3-dimethyl-1-(3-phenylpropyl)-indol-1-ium Iodide] | 12 nm | 652 nm | 664 nm | 232000 M⁻¹ cm⁻¹ | 0.12 | 9 nm | 647 nm | 656 nm | 0.08 | 330000 M⁻¹ cm⁻¹ | 12 nm | 640 nm | 652 nm | 0.02 | 303000 M⁻¹ cm⁻¹ | 324 nM | 1079 nM | 9.30 a.u. | 917.53 a.u. | 8 nm | sensitivity (S) [2]: 318000 nM⁻¹; absorption maximum (λabs) [2]: 651 nm; emission maximum (λem) [2]: 659 nm; fluorescence quantum yield (ΦF) [2]: 0.07; F/F0 [2]: 98.66; incubation time for maximum interaction with HSA [2]: immediately upon addition to the protein solution; sensitivity (S) [2, 5]: 318 µM; Stokes shift (ΔS) [3]: 37 nm; absorption maximum (λabs) [3]: 605 nm; emission maximum (λem) [3]: 642 nm; fluorescence quantum yield (ΦF) [3]: 0.00; molar absorption coefficient (ε) [3]: 58000 M⁻¹ cm⁻¹
3 | CC1(C)C(=CC2=C([O-])C(=CC3=[N+](CCCc4ccccc4)c4ccccc4C3(C)C)C2=O)N(CCCc2ccccc2)c2ccccc21 [Dye 5, 4-[3,3-Dimethyl-1-(3-phenylpropyl)-indol-1-ium-2-ylmethylene]-2-[3,3-dimethyl-1-(3-phenylpropyl)indolin-2-ylidenemethyl]-3-oxocyclobut-1-en-1-olate] | 13 nm | 646 nm | 659 nm | 293000 M⁻¹ cm⁻¹ | 1.00 | 1 nm | 638 nm | 639 nm | 0.46 | 428000 M⁻¹ cm⁻¹ | 13 nm | 631 nm | 644 nm | 0.16 | 422000 M⁻¹ cm⁻¹ | 266 nM | 886 nM | 11.46 a.u. | 680.15 a.u. | 45 nm | sensitivity (S) [2]: 209000 nM⁻¹; absorption maximum (λabs) [2]: 604 nm; emission maximum (λem) [2]: 649 nm; fluorescence quantum yield (ΦF) [2]: 0.20; blue shift in maximum emission wavelength upon HSA binding [2, 6]: 47 nm; reduction in Stokes shift upon HSA binding [2, 6]: 50%; F/F0 [2]: 59.35; incubation time to reach maximum fluorescence with HSA [2]: 24 h; sensitivity (S) [2, 5]: 209000 nM⁻¹; Stokes shift (ΔS) [3]: 91 nm; absorption maximum (λabs) [3]: 605 nm; emission maximum (λem) [3]: 696 nm; fluorescence quantum yield (ΦF) [3]: 0.02; molar absorption coefficient (ε) [3]: 89000 M⁻¹ cm⁻¹
4 | CC1(C)C(=CC2=C(NCc3ccc4ccc5cccc6ccc3c4c56)C(=CC3=[N+](CCCc4ccccc4)c4ccccc4C3(C)C)C2=O)N(CCCc2ccccc2)c2ccccc21.[I-] [Dye 14, 2-({3-[3,3-dimethyl-1-(3-phenylpropyl)indolin-2-ylidenemethyl]-4-oxo-2-[(pyren-1-ylmethyl)amino]cyclobut-2-en-1-ylidene}methyl)-3,3-dimethyl-1-(3-phenylpropyl)-indol-1-ium Iodide] | 15 nm | 661 nm | 676 nm | 197000 M⁻¹ cm⁻¹ | 0.05 | 13 nm | 658 nm | 671 nm | 0.06 | 281000 M⁻¹ cm⁻¹ | 13 nm | 650 nm | 663 nm | 0.01 | 285000 M⁻¹ cm⁻¹ | 361 nM | 1203 nM | 4.12 a.u. | 115.89 a.u. | 4 nm | absorption maximum (λabs) [2]: 663 nm; emission maximum (λem) [2]: 667 nm; fluorescence quantum yield (ΦF) [2]: 0.01; F/F0 [2]: 28.13; incubation time to reach maximum fluorescence with HSA [2]: 24 h; sensitivity (S) [2, 5]: 39 µM; absorption maximum (λabs) [3]: 672 nm; fluorescence quantum yield (ΦF) [3]: 0.00; molar absorption coefficient (ε) [3]: 67000 M⁻¹ cm⁻¹
